US8569242B2, “Method of treating degenerative disorders of the nervous system” (The Regents of the University of California, priority 2005, dated 2013)
“Also recorded” adds a separate entry of the source.

Key:
Akt = Akt phosphorylation immunoblot in microglia; type: cell-based, mouse; settings: for effect on fibrin-mediated phosphorylation of Akt: microglia on fibrinogen plus peptide; for effect on LPS-mediated phosphorylation of Akt: microglia with LPS plus peptide
Experimental: Immunoblots. Western blots were performed using standard protocols (55). Microglia were serum-starved overnight and plated on fibrinogen or with LPS for 6 hours. Lysates were electrophoresed on 4-12% gradient SDS-PAGE gels and probed with phospho and total Akt antibodies (1:1000, Cell Signaling, Beverly, Mass.). RhoA activation was performed as described (60). Briefly, 2×107 microglia were plated on fibrinogen for 6 hours or with LPS for 10 minutes. Cell lysates were incubated with GST-Rhotekin agarose beads (kindly provided by Dr. Joan Heller Brown, UCSD) for 45 minutes at 4° C. The beads were washed, resuspended in Laemmli sample buffer, and electophoresed on a 15% SDS-PAGE gel. Activated and total Rho were detected with mouse anti-RhoA (1:500, Santa Cruz Biotechnology, Santa Cruz, Calif.). Densitometry was performed using the NIH Scion Image software using three blots from three separate experiments.

splenocytes = test: FACS analysis of splenocytes for peripheral immune cell markers; type: in vivo, mouse; settings: peptide-treated vs untreated PLP139-151 immunized mice, day 29
Description: FACS Analysis. Primary mouse splenocytes were isolated from control and γ^377-395 peptide-treated mice, immunized with PLP139-151, on day 29 after immunization. Cells were immunostained with antibodies to CD4, CD8, CD11b, CD11c, CD19, B220 (1:100, Biolegend, San Diego, Calif.) and analyzed on a Becton Dickinson FACSCalibur flow cytometer.

primary microglia = test: Morphometry of microglia activation (Isolectin B4 staining, cell size); type: cell-based, mouse; settings: for effect on LPS-mediated microglia activation: LPS 1 μg/mL
Experimental: Culture of primary microglia cells. Microglia were isolated from cultures of mixed cortical cells as described (59). In brief, cortices from P1 mice were isolated and digested with trypsin (0.4%) for 20 minutes at 37° C. Cells from 4 pups were plated onto PDL-coated 75 cm2 tissue-culture flasks. The culture medium (DMEM, 10% heat-inactivated FBS, and 1% Pen/Strep) was changed on day 2. After 2-3 weeks in culture, the microglia were removed by the addition of 12 mM lidocaine (Sigma-Aldrich, St. Louis, Mo.) and orbital shaking (180 rpm) for 20 minutes at 37° C. The cells were centrifuged (350×G) and the pellet was resuspended in complete medium and plated onto PDL-coated tissue culture dishes. Microglia cell cultures were >95% pure as determined with three different markers, IsoB4, IBA-1 and CD11b. To immobilize fibrinogen, tissue culture dishes were incubated overnight with 50 μg/mL fibrinogen (Calbiochem, San Diego, Calif.) in 20 mM Tris (pH 7.5) and 0.1 M NaCl at 37° C. for all fibrinogen treatments. To serve as positive controls, LPS (Sigma-Aldrich, St. Louis, Mo.) was added to the media at 1 μg/mL.
Morphometry. Primary microglia were used for all morphologic analysis. Cells were plated on coated fibrinogen or in the presence of LPS for 72 hours. Microglia were fixed with methanol and immunostained with Isolectin B4 (1:300, Sigma-Aldrich, St. Louis, Mo.). Activated microglia were quantificated as those cells larger than 2,000 μm^2. Blocking experiments involved the daily administration of rat anti-CD11b (10 μg/mL, eBioscience, San Diego, Calif.), γ^377-395 peptide (200 μM) or rat IgG (10 μg/mL, Jackson ImmunoResearch Laboratories, West Grove, Pa.). Results were obtained from six separate experiments performed in duplicates. 250 cells per condition were counted for each individual experiment. Statistical calculations were made by using Student's t test.

[1] = test system: Mac-1 overexpressing cells; settings: reference (37); cited from earlier work

With “tyr-ser-met-lys-lys-thr-thr-met-lys-ile-ile-pro-phe-asn-arg-leu-thr-ile-gly (YSMKKTTMKIIPFNRLTIG) (listed as Homo sapiens) [γ^377-395 peptide]” the “effect on fibrin-mediated phosphorylation of Akt” value (Akt) was “specifically inhibit”, the “effect on fibrin-mediated phosphorylation of Akt” value (Akt; listed as γ^377-395) was “blocks” and the “effect on LPS-mediated phosphorylation of Akt” value (Akt) was “not LPS-mediated”. The “effect on LPS-mediated phosphorylation of Akt” value (Akt; listed as γ^377-395) was “unaffected”, the “peripheral immune cells (CD4, CD8, CD11b, CD11c, CD19, B220) in splenocytes” value (splenocytes) was “did not reveal any differences; also recorded: no significant effect” and the “effect on LPS-mediated microglia activation” value (primary microglia) was “did not inhibit”. For the same substance, the “effect on LPS-mediated microglia activation” value (primary microglia; listed as γ^377-395) was “has no effect”, the “% of activated microglia in fibrinogen treated cells in the presence of blocker” value (primary microglia; M1/70 10 μg/mL or γ^377-395 peptide 200 μM daily, fibrinogen alone 71±4.9%) was 38.3±9.8% and the “fibrinogen-induced morphologic activation of microglia (in words)” value (primary microglia; added to microglia on immobilized fibrinogen) was “attenuated”. For the same substance, the “effect on activation state of untreated microglia” value (primary microglia; peptide 200 μM) was “did not affect” and the “concentration shown to inhibit adhesion of Mac-1 overexpressing cells to immobilized fibrinogen” value [1] was 200 µM.
